Measurements from the supplement of paper PMC10307832.

Key:
Test in all cases: relative viability (nuclei count vs DMSO), 5 days (fraction); higher = more cells survive
[1] = compound: COc1cccc2cc(-c3nc([C@H]4CC[C@H](C(=O)O)CC4)n4ncnc(N)c34)[nH]c12 [OSI-027] + Cc1cc(Nc2cc(N3CCN(C)CC3)nc(Sc3ccc(NC(=O)C4CC4)cc3)n2)n[nH]1 [Tozasertib] (partner 0.1 µM)
In short: (§1)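 Values are medians from duplicate plates. Each reflects relative viability, defined as the nuclei count of treated wells over that of vehicle wells. Lung cancer cell lines in 1536-well plates were pin-tool dosed one day after seeding with one drug alone or with a fixed anchor-drug dose plus five library-drug doses (not always all listed) in √10 steps, then fixed, stained and imaged at 4× after 5 days.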

[2] = compound: Cc1nc(NC(=O)N2CCC[C@H]2C(N)=O)sc1-c1ccnc(C(C)(C)C(F)(F)F)c1 [Alpelisib] + CS(=O)(=O)CCNCc1ccc(-c2ccc3ncnc(Nc4ccc(OCc5cccc(F)c5)c(Cl)c4)c3c2)o1 [Lapatinib] (partner 2 µM)
In short: as §1

[3] = compound: CCCS(=O)(=O)Nc1ccc(F)c(C(=O)c2c[nH]c3ncc(-c4ccc(Cl)cc4)cc23)c1F [Vemurafenib] + CCNC(=O)c1noc(-c2cc(C(C)C)c(O)cc2O)c1-c1ccc(CN2CCOCC2)cc1 [Luminespib] (partner 0.01 µM)
In short: as §1

[4] = compound: CCCS(=O)(=O)Nc1ccc(F)c(C(=O)c2c[nH]c3ncc(-c4ccc(Cl)cc4)cc23)c1F [Vemurafenib] + O=C(c1cc(Cc2n[nH]c(=O)c3ccccc23)ccc1F)N1CCN(C(=O)C2CC2)CC1 [Olaparib] (partner 8 µM)
In short: as §1

Row | Cell Line | relative viability ([1]; first compound 0.01 µM) | relative viability ([1]; first compound 0.03162 µM) | relative viability ([1]; first compound 0.1 µM) | relative viability ([1]; first compound 0.3162 µM) | relative viability ([1]; first compound 1 µM) | relative viability ([2]; first compound 0.04 µM) | relative viability ([2]; first compound 0.1265 µM) | relative viability ([2]; first compound 0.4 µM) | relative viability ([2]; first compound 1.265 µM) | relative viability ([2]; first compound 4 µM) | relative viability ([3]; first compound 0.03162 µM) | relative viability ([3]; first compound 0.1 µM) | relative viability ([3]; first compound 0.3162 µM) | relative viability ([3]; first compound 1 µM) | relative viability ([4]; first compound 0.03162 µM) | relative viability ([4]; first compound 0.1 µM) | relative viability ([4]; first compound 0.3162 µM) | relative viability ([4]; first compound 1 µM)
1 | LK-2 | 0.186 | 0.188 | 0.144 | 0.162 | 0.145 | 0.871 | 0.763 | 0.768 | 0.474 | 0.564 | 0.19 | 0.188 | 0.131 | 0.181 | 0.618 | 0.633 | 0.644 | 0.417
2 | LOU-NH91 | 0.656 | 0.617 | 0.571 | 0.658 | 0.484 | 0.767 | 0.597 | 0.632 | 0.511 | 0.522 | 0.301 |  |  | 0.412 | 0.876 | 0.671 | 0.743 | 0.894
3 | NCI-H441 | 0.625 | 0.72 | 0.629 | 0.535 | 0.489 |  |  |  |  |  | 0.373 | 0.245 | 0.392 | 0.316 | 0.512 | 0.597 | 0.556 | 0.536
4 | NCI-H522 | 0.536 | 0.625 | 0.524 | 0.522 | 0.431 |  |  |  |  |  | 0.96 | 1.14 |  | 1.13 | 0.667 | 0.543 | 0.669 | 0.725
5 | NCI-H1299 |  |  |  |  |  | 0.977 | 0.981 | 0.997 | 1.03 | 1.02 |  |  |  |  | 0.906 | 0.954 | 0.863 | 0.792
6 | NCI-H1563 |  |  |  |  |  | 0.873 | 0.941 | 1.03 | 0.857 | 0.868 | 0.505 | 0.475 | 0.563 | 0.59 |  |  |  | 
7 | NCI-H1623 | 0.391 | 0.414 | 0.417 | 0.414 | 0.233 |  |  |  |  |  | 0.631 |  | 0.679 | 0.414 |  |  |  | 
8 | NCI-H1648 | 0.412 |  | 0.419 | 0.366 | 0.305 |  |  |  |  |  |  |  |  |  |  | 0.434 | 0.927 | 0.761
9 | NCI-H1703 |  |  |  |  |  | 0.949 | 0.886 | 0.789 | 0.526 | 0.678 |  |  |  |  | 0.432 | 0.307 | 0.454 | 0.515
10 | NCI-H1792 |  |  |  |  |  | 0.923 | 0.796 | 0.863 | 0.773 | 0.532 | 0.373 | 0.345 | 0.575 | 0.434 | 0.404 | 0.45 |  | 0.441
11 | NCI-H2342 | 0.445 | 0.509 | 0.492 | 0.449 | 0.421 |  |  |  |  |  | 0.609 | 0.622 | 0.792 | 0.701 | 0.401 | 0.429 | 0.608 | 0.354
12 | SW 900 |  | 0.548 | 0.493 | 0.589 | 0.483 |  |  |  |  |  | 0.168 | 0.174 | 0.207 | 0.208 | 0.812 | 0.607 | 0.939 | 0.994
